We go through two compounds from US20230241071A1, “COMBINATION TREATMENT OF LIVER DISORDERS” (Terns Pharmaceuticals, Inc., priority 2021, published 2023).

The structures appear in SMILES notation.

For one assay, the system named is mouse model of NASH. The experiment in a line: Mouse NASH model (high fat diet + CCl4), Compound 3 and Compound 2 alone and combined. The class given is in vivo. The settings on record: liver RNAseq vs vehicle NASH control, 28 d; Compound 3 3 mg/kg, Compound 2 1 mg/kg; adj. p<0.05, fold-change >1.5. On the procedure:
C57BL/6J mice were fed a high fat diet for 10 weeks to induce obesity (>38 g BW). Obese mice were injected intraperitoneally (i.p.) twice a week for four weeks with […] 25% CCl4 (formulated in olive oil) to induce fibrosis, and one group of normal BW mice were injected i.p. twice a week for four weeks with olive oil to serve as a healthy control. During the same dosing period, obese mice were fed orally once a day for 28 days with vehicle, Compound 3 or Compound 2 as single agents or in combination. On CCl4 dosing days, CCl4 was administered at 4 hours post compound or vehicle dosing. On day 27, all animals were fasted for about 16 hours before terminal euthanasia. On day 28, all animals were sacrificed and liver samples were collected for whole transcriptome analysis by RNA sequencing (RNAseq). RNAseq library (n=5 per group) preparation and sequencing was performed using Illumina standard protocols. Alignment of sequencing reads was performed using STAR aligner software and read counts were estimated using RSEM. Differentially expressed genes (compared to vehicle-treated NASH control mice) were determined using EdgeR software. Gene ontology analysis was performed using Advaita software with fold-change and adjusted p-value cutoffs of >1.5 and <0.05, respectively. Gene ontologies were derived from the Gene Ontology Consortium database (2019 Apr. 26) (Ashburner et al., Gene ontology: Tool for the unification of biology. Nature Genetics 25(1): 25-9 (2000); Gene Ontology Consortium, Creating the Gene Ontology Resource: Design and Implementation. Genome Research 11: 1425-1433 (2001)).
Gene ontology (GO) enrichment analysis was used to understand the potential biological consequences of the results in Table 22. To perform GO term enrichment analysis, the number (i.e., enrichment) of DEGs annotated for a particular term (i.e. biology process) was compared to the number of DEGs expected solely by chance. An over-representation approach was used to compute statistical significance (p-value) of observing at least the given number of DEGs; p-values were corrected for multiple comparisons.
On day 28 of treatment as described in Example 14, animals were euthanized for sample collections. Analysis of cholesterol, triglycerides, and ALT was done using a Hitachi 7180 clinical analyzer. Liver samples were processed for lipid quantification (colorimetric assays, SpectraMax 340PC384), histology, and RNA analysis. RNAseq library preparation (n=5 per group) and sequencing was performed using Illumina standard protocols. Alignment of sequencing reads was performed using STAR aligner and read counts were estimated using RSEM. Differentially expressed genes (DEGs) relative to NASH control were determined using EdgeR. Gene ontology analysis was performed using Advaita software.

In assay [1] the test system is SD rats fed a high cholesterol diet. The assay can be described thus: Rat hypercholesterolemic model. It is filed as in vivo. The settings on record: single IP dose 0.3 to 30 mpk, 24 h after injection. On the procedure:
SD rats were fed a high cholesterol diet for 2 weeks, increasing the serum cholesterol levels ˜4-fold over that time. Single doses of Compound 2 from 0.3 to 30 mpk or a single 30 mpk dose of MGL-3196 were injected IP and serum was analyzed for total serum cholesterol and triglycerides 24 h after the injection.

The next assay addresses T1, THR-β (Homo sapiens, UniProt P10828).
T1 sequence (P10828 1-461): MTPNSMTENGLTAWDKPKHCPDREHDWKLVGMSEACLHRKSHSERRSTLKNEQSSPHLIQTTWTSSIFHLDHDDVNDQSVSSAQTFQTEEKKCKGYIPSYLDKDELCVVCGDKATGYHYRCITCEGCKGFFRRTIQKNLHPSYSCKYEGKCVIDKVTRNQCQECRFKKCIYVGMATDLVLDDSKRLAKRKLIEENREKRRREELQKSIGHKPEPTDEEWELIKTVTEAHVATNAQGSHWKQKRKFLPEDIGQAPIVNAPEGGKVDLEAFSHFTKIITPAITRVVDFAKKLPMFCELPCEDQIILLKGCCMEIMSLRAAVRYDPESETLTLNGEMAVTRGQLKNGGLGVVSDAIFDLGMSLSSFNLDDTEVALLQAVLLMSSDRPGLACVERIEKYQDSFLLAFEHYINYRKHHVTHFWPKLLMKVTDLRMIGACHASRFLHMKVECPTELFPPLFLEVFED
The experiment in a line: Binding activity to the thyroxine receptor beta.

For the compound `N#Cc1nn(-c2cc(Cl)c(Oc3n[nH]c(=O)c4ccccc34)c(Cl)c2)c(=O)[nH]c1=O` [Compound 2, 2-(3,5-dichloro-4-((4-oxo-3,4-dihydrophthalazin-1-yl)oxy)phenyl)-3,5-dioxo-2,3,4,5-tetrahydro-1,2,4-triazine-6-carbonitrile], in the assay on mouse model of NASH, the “Down DEGs” value turned out to be 635, the “Total DEGs” value was 1113 and the “Up DEGs” value is listed as 478. In assay [1], the “reduction of serum triglycerides from time 0” value is recorded as 30-80% and the “reduction of total cholesterol in the serum” value was 30-70%. For the same compound, on THR-β (ratio of binding IC50), the THR-α/-β selectivity is reported as greater than 58.8 factor. For the same compound, the IC50 on THR-β (read-out: IC50 THR-β binding force) is 170 nM.
Consider `Cn1cc(C(=O)O)c2ccc(N3CCC(OCc4c(-c5c(Cl)cccc5Cl)noc4C4CC4)CC3)cc21` [Compound 3], for which, in the assay on mouse model of NASH, the “Down DEGs” value was determined as 271, the “Total DEGs” value was found to be 617 and the “Up DEGs” value stood at 346.
